Measurements: patent US12275731B2, “Azaindole inhibitors of wild-type and mutant forms of LRRK2” (DANA-FARBER CANCER INSTITUTE, INC., priority 2018, dated 2025)

Assays:
Assay in all cases: KinomeScan profiling
Assay type in all cases: binding
FGFR4 = FGFR4 (Homo sapiens, UniProt P22455); conditions: FGFR4, 1 μM; read-out: % control
In short: (§1)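 Selectivity was assessed by binding competition at 1 μM against 468 kinases. Values below 35% of control define an interaction.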

PIK3C2G = target: T1, PIK3C2G (Homo sapiens, UniProt O75747); conditions: read-out: % control
T1 construct: purchased KinomeScan® (panel service)
T1 sequence (O75747 1-1486): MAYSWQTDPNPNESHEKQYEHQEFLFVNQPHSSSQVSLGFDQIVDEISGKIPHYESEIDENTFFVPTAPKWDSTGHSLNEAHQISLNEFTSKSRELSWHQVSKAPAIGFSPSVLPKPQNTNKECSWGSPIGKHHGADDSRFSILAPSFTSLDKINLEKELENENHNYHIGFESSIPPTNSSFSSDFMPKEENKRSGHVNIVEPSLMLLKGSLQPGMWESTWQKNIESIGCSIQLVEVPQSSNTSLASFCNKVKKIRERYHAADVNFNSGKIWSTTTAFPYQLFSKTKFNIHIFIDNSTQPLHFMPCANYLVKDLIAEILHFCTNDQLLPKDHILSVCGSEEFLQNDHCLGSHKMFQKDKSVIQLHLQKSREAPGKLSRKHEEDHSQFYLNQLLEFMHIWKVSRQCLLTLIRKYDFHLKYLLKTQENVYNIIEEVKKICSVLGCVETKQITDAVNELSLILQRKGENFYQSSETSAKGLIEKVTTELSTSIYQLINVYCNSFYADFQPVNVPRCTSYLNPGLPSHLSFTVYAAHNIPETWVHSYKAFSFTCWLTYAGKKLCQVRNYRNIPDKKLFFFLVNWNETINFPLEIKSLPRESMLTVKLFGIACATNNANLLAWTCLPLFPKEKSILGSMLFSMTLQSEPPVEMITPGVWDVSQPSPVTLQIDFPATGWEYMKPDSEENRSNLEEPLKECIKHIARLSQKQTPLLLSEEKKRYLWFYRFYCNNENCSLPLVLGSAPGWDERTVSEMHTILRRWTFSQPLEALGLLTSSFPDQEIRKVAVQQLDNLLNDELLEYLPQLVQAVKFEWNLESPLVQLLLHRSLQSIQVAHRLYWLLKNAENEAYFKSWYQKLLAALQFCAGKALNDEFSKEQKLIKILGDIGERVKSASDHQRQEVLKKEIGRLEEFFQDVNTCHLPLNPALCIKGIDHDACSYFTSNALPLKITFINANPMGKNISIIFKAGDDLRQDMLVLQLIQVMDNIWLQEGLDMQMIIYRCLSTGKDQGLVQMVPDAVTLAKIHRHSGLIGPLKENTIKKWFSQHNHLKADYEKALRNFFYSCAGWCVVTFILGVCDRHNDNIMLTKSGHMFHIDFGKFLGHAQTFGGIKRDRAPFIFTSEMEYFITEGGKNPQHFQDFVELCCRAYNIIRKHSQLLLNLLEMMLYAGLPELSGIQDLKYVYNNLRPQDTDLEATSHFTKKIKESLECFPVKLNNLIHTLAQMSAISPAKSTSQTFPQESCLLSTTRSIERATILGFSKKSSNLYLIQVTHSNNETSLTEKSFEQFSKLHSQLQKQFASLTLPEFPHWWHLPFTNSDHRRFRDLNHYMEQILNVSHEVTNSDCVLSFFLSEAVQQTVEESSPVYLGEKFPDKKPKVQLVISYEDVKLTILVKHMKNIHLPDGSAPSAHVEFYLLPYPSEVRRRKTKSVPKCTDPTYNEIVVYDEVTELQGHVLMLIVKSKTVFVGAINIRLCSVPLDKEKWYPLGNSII
In short: as §1

MLK3 = MLK3 (Homo sapiens, UniProt Q16584); conditions: MLK3, 1 μM; read-out: % control
In short: as §1

RIOK3 = target: T2, RIOK3 (Homo sapiens, UniProt O14730); conditions: RIOK3, 1 μM; read-out: % control
T2 sequence (O14730 1-519): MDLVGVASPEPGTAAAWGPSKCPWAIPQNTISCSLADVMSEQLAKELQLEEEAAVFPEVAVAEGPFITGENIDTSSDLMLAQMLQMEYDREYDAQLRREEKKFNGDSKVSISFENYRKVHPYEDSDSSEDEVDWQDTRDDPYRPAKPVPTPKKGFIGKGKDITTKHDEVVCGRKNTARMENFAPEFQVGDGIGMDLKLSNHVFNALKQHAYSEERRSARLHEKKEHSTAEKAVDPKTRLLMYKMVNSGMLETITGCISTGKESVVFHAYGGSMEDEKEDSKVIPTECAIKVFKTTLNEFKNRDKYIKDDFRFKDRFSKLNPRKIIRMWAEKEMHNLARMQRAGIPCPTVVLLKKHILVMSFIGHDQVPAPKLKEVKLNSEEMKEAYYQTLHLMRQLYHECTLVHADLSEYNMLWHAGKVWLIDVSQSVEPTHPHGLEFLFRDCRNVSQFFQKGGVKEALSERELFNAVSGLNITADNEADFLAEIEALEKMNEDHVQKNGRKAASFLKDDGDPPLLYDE
In short: as §1

MLK3, sequence (Q16584 whole entry): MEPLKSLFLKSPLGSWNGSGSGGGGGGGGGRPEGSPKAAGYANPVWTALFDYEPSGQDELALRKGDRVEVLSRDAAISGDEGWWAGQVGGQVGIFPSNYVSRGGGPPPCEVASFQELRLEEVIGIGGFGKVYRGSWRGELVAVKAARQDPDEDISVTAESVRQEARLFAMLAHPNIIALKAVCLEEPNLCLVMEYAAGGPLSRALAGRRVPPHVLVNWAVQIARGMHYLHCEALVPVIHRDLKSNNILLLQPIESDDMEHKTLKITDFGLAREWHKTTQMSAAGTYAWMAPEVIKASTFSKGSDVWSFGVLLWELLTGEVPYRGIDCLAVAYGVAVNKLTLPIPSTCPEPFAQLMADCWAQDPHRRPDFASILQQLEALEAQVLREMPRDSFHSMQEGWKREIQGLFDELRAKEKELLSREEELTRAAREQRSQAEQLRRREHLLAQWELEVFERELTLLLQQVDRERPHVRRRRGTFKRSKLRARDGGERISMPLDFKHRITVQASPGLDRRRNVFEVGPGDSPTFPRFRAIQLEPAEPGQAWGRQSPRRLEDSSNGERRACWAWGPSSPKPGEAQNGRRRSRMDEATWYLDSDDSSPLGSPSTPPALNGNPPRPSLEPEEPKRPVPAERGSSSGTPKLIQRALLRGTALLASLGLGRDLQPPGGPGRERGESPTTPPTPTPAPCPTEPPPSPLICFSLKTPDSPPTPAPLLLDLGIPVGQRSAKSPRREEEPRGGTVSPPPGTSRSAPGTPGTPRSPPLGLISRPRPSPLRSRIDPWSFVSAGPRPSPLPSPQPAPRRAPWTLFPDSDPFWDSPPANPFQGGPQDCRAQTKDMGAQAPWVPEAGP
FGFR4, sequence (P22455 22-802): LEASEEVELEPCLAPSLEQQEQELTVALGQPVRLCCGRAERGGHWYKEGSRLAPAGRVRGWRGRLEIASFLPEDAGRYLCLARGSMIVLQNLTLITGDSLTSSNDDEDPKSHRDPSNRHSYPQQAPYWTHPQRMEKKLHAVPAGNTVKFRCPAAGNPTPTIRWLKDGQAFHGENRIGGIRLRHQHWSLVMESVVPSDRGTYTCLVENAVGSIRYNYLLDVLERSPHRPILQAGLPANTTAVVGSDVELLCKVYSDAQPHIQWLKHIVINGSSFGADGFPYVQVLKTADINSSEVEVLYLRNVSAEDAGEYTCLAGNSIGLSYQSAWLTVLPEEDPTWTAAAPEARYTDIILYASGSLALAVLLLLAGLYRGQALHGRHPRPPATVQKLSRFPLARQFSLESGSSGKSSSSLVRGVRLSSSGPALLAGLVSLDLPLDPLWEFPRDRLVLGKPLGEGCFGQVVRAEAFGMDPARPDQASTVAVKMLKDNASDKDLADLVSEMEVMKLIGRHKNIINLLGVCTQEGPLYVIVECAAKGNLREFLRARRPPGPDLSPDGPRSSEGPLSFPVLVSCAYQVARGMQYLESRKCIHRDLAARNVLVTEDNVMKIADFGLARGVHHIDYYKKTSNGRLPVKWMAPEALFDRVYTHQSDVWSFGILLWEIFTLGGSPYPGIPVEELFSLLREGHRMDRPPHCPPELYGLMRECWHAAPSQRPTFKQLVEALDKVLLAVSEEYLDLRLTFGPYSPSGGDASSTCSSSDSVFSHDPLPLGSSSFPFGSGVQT

Row | SMILES | remaining binding at 1 µM (FGFR4) [%] | remaining binding at 1 µM (PIK3C2G) [%] | remaining binding at 1 µM (MLK3) [%] | remaining binding at 1 µM (RIOK3) [%]
1 | O=C(c1ccc(-c2cnc3[nH]cc(Cl)c3c2NC2CCCC2)cc1)N1CCC(N2CCOCC2)CC1 [Compound 101, (4-(3-chloro-4-(cyclopentylamino)-1H-pyrrolo[2,3-b]pyridin-5-yl)phenyl)(4-morpholinopiperidin-1-yl)methanone] | 85 | 92 | 100 | 50
2 | CNc1c(-c2cnn([C@H]3CCN(C(C)=O)C[C@@H]3F)c2)cnc2[nH]cc(Cl)c12 [Compound 77, 1-((3S,4S)-4-(4-(3-chloro-4-(methylamino)-1H-pyrrolo[2,3-b]pyridin-5-yl)-1H-pyrazol-1-yl)-3-fluoropiperidin-1-yl)ethan-1-one] | 61 | 100 | 93 | 24
3 | CNc1c(-c2ccc(C(=O)N3CCC(N4CCOCC4)CC3)cc2)cnc2[nH]cc(Cl)c12 [Compound 96, (4-(3-chloro-4-(methylamino)-1H-pyrrolo[2,3-b]pyridin-5-yl)phenyl)(4-morpholinopiperidin-1-yl)methanone] | 59 | 94 | 99 | 36
